Experimental data from patent publication US11987564B2, “PTPRD inhibitors and uses thereof” (United States Government as represented by the Department …, priority 2021, dated 2024).
Like-named read-outs stand apart in the source and are kept apart here.

Tests used:
[1] = target: T1, PTPN1 (PTP1B) (Homo sapiens, UniProt P18031); experiment: pNPP hydrolysis by PTPN1 (PTP1B) phosphatase; type: biochemical; conditions: untitled table after Table 4; mean, SEM in wrapped line
T1 construct: purchased
T1 sequence (P18031 1-435): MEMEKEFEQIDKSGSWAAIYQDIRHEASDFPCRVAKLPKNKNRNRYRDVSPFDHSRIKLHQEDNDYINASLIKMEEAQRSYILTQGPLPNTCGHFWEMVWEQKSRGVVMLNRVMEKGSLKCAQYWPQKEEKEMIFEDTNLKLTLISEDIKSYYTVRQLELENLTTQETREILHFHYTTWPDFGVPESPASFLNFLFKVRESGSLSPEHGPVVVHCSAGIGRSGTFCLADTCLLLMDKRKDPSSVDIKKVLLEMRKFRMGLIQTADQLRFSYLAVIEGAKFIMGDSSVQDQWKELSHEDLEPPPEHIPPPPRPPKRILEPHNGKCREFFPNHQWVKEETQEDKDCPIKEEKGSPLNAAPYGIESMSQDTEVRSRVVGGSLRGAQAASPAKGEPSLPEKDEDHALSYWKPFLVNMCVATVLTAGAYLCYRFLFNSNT

[2] = system: wildtype C57BL/6J or PTPRD knockout mice
[3] = target: T2, PTPRJ (Homo sapiens, UniProt Q12913); experiment: pNPP hydrolysis by PTPRJ phosphatase; type: biochemical
T2 construct: purchased
T2 sequence (Q12913 36-1337): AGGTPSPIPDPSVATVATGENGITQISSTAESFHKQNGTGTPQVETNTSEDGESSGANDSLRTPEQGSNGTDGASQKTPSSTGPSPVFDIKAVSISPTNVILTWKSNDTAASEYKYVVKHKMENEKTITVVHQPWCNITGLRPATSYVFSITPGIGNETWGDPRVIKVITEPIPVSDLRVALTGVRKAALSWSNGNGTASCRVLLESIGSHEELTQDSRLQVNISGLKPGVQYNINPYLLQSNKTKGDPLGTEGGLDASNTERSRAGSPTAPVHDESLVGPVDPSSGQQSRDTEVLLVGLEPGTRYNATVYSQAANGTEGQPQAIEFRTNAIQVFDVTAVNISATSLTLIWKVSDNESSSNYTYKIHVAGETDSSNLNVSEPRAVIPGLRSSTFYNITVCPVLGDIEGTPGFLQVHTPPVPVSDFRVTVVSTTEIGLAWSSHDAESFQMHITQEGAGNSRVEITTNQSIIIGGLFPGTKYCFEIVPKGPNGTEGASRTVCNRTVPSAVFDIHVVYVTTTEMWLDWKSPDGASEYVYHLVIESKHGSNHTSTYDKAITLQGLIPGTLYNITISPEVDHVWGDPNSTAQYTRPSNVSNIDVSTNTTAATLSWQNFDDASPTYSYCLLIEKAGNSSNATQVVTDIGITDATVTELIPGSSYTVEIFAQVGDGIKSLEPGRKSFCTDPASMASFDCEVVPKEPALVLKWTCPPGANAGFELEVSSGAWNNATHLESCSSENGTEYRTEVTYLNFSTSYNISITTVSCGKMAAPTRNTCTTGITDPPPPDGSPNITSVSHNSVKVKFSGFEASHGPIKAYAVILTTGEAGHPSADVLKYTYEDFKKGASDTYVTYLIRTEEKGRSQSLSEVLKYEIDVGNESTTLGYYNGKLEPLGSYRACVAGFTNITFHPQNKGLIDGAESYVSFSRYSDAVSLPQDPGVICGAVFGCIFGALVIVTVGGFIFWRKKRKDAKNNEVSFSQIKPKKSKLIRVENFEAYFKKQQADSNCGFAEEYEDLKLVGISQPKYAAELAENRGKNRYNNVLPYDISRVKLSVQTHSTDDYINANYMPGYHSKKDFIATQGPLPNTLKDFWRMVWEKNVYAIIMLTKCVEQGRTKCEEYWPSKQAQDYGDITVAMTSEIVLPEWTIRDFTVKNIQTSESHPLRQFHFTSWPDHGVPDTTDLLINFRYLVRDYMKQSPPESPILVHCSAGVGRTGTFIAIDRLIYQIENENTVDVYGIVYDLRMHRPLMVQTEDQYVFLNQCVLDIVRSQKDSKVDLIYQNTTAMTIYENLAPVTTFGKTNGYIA
From the text: (§1) Human […] ([…]-pY-[…]) phosphopeptide (Pierce/ThermoFisher) were synthesized.

[4] = target: PTPRS (Homo sapiens, UniProt Q13332); experiment: pNPP hydrolysis by recombinant PTPRS phosphatase; type: biochemical
Sequence of PTPRS (Q13332 30-1948, species assumed): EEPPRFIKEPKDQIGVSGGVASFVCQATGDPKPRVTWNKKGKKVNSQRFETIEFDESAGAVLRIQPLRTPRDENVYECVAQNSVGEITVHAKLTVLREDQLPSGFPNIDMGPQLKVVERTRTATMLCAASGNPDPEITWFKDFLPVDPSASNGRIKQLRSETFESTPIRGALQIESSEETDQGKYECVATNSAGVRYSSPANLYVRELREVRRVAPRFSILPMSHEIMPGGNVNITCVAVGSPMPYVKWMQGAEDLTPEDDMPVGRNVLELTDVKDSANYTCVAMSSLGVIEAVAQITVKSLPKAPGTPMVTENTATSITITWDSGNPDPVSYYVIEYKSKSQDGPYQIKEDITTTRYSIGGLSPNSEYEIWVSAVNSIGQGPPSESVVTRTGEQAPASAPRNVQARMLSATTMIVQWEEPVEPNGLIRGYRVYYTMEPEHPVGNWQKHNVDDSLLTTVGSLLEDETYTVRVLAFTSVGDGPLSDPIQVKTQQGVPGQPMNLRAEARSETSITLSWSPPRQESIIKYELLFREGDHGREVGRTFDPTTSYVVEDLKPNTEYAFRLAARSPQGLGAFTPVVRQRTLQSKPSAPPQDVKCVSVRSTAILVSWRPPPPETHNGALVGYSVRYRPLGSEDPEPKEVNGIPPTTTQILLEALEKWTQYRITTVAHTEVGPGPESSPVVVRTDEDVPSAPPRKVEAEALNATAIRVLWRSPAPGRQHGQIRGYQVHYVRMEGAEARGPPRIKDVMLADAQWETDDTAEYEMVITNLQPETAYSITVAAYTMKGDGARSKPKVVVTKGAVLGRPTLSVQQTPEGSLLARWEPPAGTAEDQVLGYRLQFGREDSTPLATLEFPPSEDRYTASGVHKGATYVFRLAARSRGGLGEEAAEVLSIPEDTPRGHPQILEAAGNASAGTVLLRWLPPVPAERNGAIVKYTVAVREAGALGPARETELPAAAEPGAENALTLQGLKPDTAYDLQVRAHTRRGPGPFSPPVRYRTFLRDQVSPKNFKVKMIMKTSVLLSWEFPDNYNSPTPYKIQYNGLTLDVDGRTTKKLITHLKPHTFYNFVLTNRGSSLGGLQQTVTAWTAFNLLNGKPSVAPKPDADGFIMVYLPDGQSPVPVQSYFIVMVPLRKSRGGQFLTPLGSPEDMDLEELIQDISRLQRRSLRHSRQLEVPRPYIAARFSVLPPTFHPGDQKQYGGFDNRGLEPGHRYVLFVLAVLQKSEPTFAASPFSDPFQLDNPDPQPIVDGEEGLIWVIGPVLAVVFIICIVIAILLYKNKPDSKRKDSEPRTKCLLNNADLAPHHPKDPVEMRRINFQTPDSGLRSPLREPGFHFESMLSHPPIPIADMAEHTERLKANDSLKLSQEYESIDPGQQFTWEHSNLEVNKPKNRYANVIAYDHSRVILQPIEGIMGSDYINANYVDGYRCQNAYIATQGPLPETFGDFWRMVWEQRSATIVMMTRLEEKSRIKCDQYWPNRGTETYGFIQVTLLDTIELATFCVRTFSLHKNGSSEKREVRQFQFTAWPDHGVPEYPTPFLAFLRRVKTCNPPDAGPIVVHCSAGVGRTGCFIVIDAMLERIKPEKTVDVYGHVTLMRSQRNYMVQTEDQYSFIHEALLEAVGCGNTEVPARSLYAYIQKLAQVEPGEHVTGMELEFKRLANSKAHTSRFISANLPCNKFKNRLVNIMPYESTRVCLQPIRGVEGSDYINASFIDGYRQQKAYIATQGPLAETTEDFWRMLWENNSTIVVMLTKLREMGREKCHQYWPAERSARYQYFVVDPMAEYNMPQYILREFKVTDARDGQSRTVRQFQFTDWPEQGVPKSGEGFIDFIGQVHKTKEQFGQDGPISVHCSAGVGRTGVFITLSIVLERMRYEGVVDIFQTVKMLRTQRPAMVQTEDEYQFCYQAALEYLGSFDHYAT
From the text: as §1

[5] = target: PTPRF (Homo sapiens, UniProt P10586); experiment: pNPP hydrolysis by recombinant PTPRF phosphatase
Experimental: (§2) Phosphatase assays: Data for each assay type (3 wells/experimental condition, read using a Spectromax plate reader) was plotted vs time, and results derived from the slopes of linear regions were reported from triplicate independent experiments.
(§3) For assays of compound ligands that were likely pseudo-irreversible, 18 min preincubations were also added. For work determining the effect of flavonoids on pNPP hydrolysis, a 96 well half-area plate was prepared by first filling each well to be tested with 18 μL of 50 μM pNPP and 25 uL of running buffer, and 2 μL of DMSO containing the desired concentration of flavonoid and/or peptide. PTPRD phosphatase was diluted 1:50 in a dilution buffer.

[6] = target: recombinant PTPRD (Homo sapiens, UniProt P23468); experiment: pNPP hydrolysis by recombinant PTPRD phosphatase
Sequence of recombinant PTPRD (P23468 21-1912): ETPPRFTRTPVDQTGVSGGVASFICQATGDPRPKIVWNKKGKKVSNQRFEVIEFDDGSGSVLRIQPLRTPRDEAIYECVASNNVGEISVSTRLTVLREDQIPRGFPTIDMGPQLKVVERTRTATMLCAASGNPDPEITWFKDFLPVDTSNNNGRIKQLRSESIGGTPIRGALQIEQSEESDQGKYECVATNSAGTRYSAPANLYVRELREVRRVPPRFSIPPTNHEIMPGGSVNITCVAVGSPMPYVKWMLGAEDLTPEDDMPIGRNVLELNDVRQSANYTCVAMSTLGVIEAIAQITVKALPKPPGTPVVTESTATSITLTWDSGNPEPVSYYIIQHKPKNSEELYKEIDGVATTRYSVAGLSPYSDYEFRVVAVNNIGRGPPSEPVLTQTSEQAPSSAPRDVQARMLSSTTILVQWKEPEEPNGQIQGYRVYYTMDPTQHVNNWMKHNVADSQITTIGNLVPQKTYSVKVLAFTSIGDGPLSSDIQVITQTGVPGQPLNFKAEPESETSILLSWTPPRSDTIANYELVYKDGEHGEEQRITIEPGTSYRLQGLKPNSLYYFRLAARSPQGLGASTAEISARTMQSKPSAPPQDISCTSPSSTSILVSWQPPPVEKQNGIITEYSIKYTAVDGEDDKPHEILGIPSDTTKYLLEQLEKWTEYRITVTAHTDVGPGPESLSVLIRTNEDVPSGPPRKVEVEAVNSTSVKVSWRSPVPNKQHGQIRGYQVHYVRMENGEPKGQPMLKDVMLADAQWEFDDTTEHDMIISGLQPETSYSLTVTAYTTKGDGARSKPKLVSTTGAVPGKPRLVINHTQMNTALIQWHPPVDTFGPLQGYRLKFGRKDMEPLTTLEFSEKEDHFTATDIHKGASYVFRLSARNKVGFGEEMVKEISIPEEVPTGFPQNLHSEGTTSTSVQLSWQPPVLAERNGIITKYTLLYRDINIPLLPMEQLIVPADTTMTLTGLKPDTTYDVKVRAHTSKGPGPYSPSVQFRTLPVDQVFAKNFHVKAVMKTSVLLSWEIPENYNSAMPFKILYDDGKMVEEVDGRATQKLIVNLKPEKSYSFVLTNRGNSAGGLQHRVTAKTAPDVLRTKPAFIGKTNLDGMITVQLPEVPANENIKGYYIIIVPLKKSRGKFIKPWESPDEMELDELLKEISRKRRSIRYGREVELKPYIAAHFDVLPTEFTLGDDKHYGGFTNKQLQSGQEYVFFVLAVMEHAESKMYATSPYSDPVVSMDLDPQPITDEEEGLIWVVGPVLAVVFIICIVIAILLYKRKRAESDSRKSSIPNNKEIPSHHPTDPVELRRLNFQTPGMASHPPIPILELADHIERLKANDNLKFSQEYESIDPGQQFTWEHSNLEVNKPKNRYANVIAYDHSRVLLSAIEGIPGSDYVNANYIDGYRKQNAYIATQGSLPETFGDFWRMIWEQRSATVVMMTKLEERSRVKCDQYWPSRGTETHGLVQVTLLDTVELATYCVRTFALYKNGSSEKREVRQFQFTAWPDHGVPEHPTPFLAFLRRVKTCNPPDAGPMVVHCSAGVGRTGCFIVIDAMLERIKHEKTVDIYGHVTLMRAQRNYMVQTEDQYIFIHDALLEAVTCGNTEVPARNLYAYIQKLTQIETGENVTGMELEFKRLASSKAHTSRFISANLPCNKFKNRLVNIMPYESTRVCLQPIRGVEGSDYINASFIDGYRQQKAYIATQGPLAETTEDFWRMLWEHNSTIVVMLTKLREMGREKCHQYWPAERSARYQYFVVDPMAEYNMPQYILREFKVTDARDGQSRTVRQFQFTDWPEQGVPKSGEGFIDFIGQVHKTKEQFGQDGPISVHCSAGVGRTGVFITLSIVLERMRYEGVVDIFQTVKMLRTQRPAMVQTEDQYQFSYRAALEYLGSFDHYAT
Experimental: as §2, §3

[7] = Table 4, mean (SEM) of three independent experiments, * = instability, no valid triplicate
[8] = untitled table after Table 4, mean, SEM in wrapped line
[9] = PTPRF IC50, Table 4, mean (SEM) of three independent experiments, * = instability, no valid triplicate
[10] = PTPRF IC50, untitled table after Table 4, mean, SEM in wrapped line
[11] = PTPRD IC50, untitled table after Table 4, mean, SEM in wrapped line, compounds with PTPRD IC50 <5 μM

IC50 [1] [µM]	IC50 [3, 7] [µM]	IC50 [3, 8] [µM]	IC50 [4, 7] [µM]	IC50 [4, 8] [µM]	IC50 [5, 9] [µM]	IC50 [5, 10] [µM]	IC50 ([6]; read-out: PTPRD IC50, Table 4, mean (SEM) of three independent experiments, * = instability, no valid triplicate) [µM]	IC50 ([6]; read-out: PTPRD IC50, untitled table after Table 4, mean, SEM in wrapped line, compounds with PTPRD IC50 <5 μM) [µM]	IC50 ([6]; PTPRD IC50, Table 4, mean (SEM) of three independent experiments, * = instability, no valid triplicate) [µM]	IC50 [6, 11] [µM]	Structure (SMILES)	death (or euthanasia) prior to day 3 ([2]; 400 or 200 mg/kg gavage)	no observed adverse effect level (NOAEL) ([2]; mouse, single dose p.o., based on weight changes, gross pathology, histopathology, cage behaviors) [mg/kg]
215	27.4	27.4	1.27	1.27	3.95	3.95	2.27	2.27	–	–	CCCCOc1cc2c(c(C=O)c1OC)CC(O)OC2=O (stereo not shown) [Compound 1, reference compound]	–	–
> 100	17.8	17.8	1.8	1.8	2.46	2.46	–	–	3.21	3.21	COc1c(OCC=C(C)C)cc2c(c1C=O)CC(O)OC2=O (stereo not shown) [Compound 59, 3-Hydroxy-6-methoxy-7-(3-methyl-but-2-enyloxy)-1-oxo-isochroman-5-carbaldehyde]	–	–
24.1	–	32.7	3.36	2.85	3.03	4.52	–	–	–	2.76	COc1c(OCC2CCC2)cc2c(c1C=O)CC(O)OC2=O (stereo not shown) [Compound 65, 7-Cyclobutylmethoxy-3-hydroxy-6-methoxy-1-oxo-isochroman-5-carbaldehyde]	–	–

Structure (SMILES)	IC50 [1] [µM]	IC50 [3, 7] [µM]	IC50 [3, 8] [µM]	IC50 [4, 7] [µM]	IC50 [4, 8] [µM]	IC50 [5, 9] [µM]	IC50 [5, 10] [µM]	IC50 ([6]; read-out: PTPRD IC50, Table 4, mean (SEM) of three independent experiments, * = instability, no valid triplicate) [µM]	IC50 ([6]; read-out: PTPRD IC50, untitled table after Table 4, mean, SEM in wrapped line, compounds with PTPRD IC50 <5 μM) [µM]	IC50 ([6]; PTPRD IC50, Table 4, mean (SEM) of three independent experiments, * = instability, no valid triplicate) [µM]	IC50 [6, 11] [µM]	death (or euthanasia) prior to day 3 ([2]; 400 or 200 mg/kg gavage)	no observed adverse effect level (NOAEL) ([2]; mouse, single dose p.o., based on weight changes, gross pathology, histopathology, cage behaviors) [mg/kg]
COc1c(OCC2CCCC2)cc2c(c1C=O)CC(O)OC2=O (stereo not shown) [Compound 66, 7-Cyclopentylmethoxy-3-hydroxy-6-methoxy-1-oxo-isochroman-5-carbaldehyde]	119	29.3	29.3	0.61	0.61	1.72	1.72	–	–	–	–	none	200
